Test systems include NCI-H226 lung; HL-60(TB) leukemia; SNB-75 CNS; SF-539 CNS; OVCAR-8 ovarian; HT29 colon; U251 CNS; NCI-H23 lung; DU-145 prostate; K-562 leukemia.
What all share (experiment): NCI-60 cell line screen, 48 h

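Following 48 hours of exposure in 96-well plates, responses at five concentrations were used to interpolate endpoints linearly. GI50: concentration for 50% inhibition of growth. TGI is the concentration that stops growth completely.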

For `COc1cc[nH]c1/C=C1\C(=O)Nc2ccc(F)c(C#C[C@@H](O)[C@@H](N)[C@@H](C)O)c21`, the GI50 in the assay with NCI-H226 lung is 0.526 µM; in the assay with HL-60(TB) leukemia, 0.42 µM; with SNB-75 CNS it was 0.112 µM; in the assay with SF-539 CNS, 0.472 µM; with OVCAR-8 ovarian, 0.843 µM; with HT29 colon it was 0.448 µM. Further, the GI50 is 0.445 µM in the assay on U251 CNS, 0.649 µM in the assay with NCI-H23 lung, 0.529 µM in the assay with DU-145 prostate and 0.651 µM in the assay with K-562 leukemia. The TGI was 2.54 µM in the assay on NCI-H226 lung; 1.55 µM in the assay on HL-60(TB) leukemia; 0.75 µM in the assay with SNB-75 CNS; 1.12 µM in the assay with SF-539 CNS; 5.15 µM with OVCAR-8 ovarian; 1.49 µM in the assay on HT29 colon. In addition, the TGI in the assay on U251 CNS worked out at 2.61 µM; in the assay with NCI-H23 lung, 3.33 µM; in the assay with DU-145 prostate, 3.5 µM; in the assay with K-562 leukemia, 3.44 µM.

In the case of `O=C1C=C[C@]2(C[C@@H](c3cccc(C(F)(F)F)c3)O[C@@H](c3cccc(C(F)(F)F)c3)O2)O1`, the GI50 in the assay with NCI-H226 lung is 2.18 µM; with HL-60(TB) leukemia, 1.88 µM; in the assay on SNB-75 CNS it was 2.79 µM; with SF-539 CNS, 1.43 µM; with OVCAR-8 ovarian it was 3.03 µM; with HT29 colon, 2.12 µM. In addition, the GI50 in the assay on U251 CNS was 2.58 µM; in the assay with NCI-H23 lung, 4.03 µM; with DU-145 prostate it was 5.72 µM; in the assay on K-562 leukemia it was 2.68 µM. The TGI with NCI-H226 lung came to 10.5 µM; with HL-60(TB) leukemia, 8.34 µM; in the assay with SNB-75 CNS, 16.1 µM; in the assay with SF-539 CNS, 3.31 µM; with OVCAR-8 ovarian, 13.4 µM; in the assay with HT29 colon, 5.52 µM. In addition, the TGI was 12.9 µM with U251 CNS, 18.7 µM in the assay with NCI-H23 lung, 18.4 µM in the assay on DU-145 prostate and above 100 µM in the assay on K-562 leukemia.

Turning to `CCCCCCCCCCCCc1ccc(C(=O)/C=C/C(=O)O)cc1`, the GI50 was 1.59 µM with NCI-H226 lung; 1.56 µM in the assay with HL-60(TB) leukemia; 1.66 µM in the assay on SNB-75 CNS; 1.73 µM in the assay with SF-539 CNS; 3.44 µM in the assay on OVCAR-8 ovarian; 1.81 µM with HT29 colon. Besides, the GI50 was 5.63 µM in the assay on U251 CNS, 1.89 µM in the assay with NCI-H23 lung, 8.15 µM with DU-145 prostate and 2.13 µM with K-562 leukemia. Also, the TGI in the assay on NCI-H226 lung is 3.14 µM; with HL-60(TB) leukemia it was 3.58 µM; in the assay with SNB-75 CNS, 10.4 µM; in the assay with SF-539 CNS it was 3.33 µM; with OVCAR-8 ovarian, 12.9 µM; in the assay on HT29 colon, 4 µM. In addition, the TGI in the assay on U251 CNS was 18.9 µM; in the assay on NCI-H23 lung, 4.65 µM; in the assay with DU-145 prostate, 20.9 µM; with K-562 leukemia, 5.74 µM.

With `COc1ccc(-c2cc(-c3ccc(Nc4nc(Nc5ccc(Cl)cc5)nc(Nc5ccc(Cl)cc5)n4)cc3)nc(N)c2C#N)cc1`, the GI50 was 0.676 µM with NCI-H226 lung; 0.866 µM in the assay with HL-60(TB) leukemia; 1.4 µM in the assay on SNB-75 CNS; 2.02 µM with SF-539 CNS; 2.12 µM in the assay on OVCAR-8 ovarian; 2.25 µM in the assay with HT29 colon. Besides, the GI50 in the assay with U251 CNS was 2.29 µM; with NCI-H23 lung, 3.52 µM; in the assay on DU-145 prostate, 3.91 µM; in the assay with K-562 leukemia it was 1.61 µM. Besides, the TGI in the assay on NCI-H226 lung was 1.89 µM; with HL-60(TB) leukemia, 4.59 µM; with SNB-75 CNS, 3.5 µM; with SF-539 CNS, 4.15 µM; with OVCAR-8 ovarian it was above 51.2 µM; with HT29 colon it was 13 µM. In addition, the TGI in the assay on U251 CNS is 6.58 µM; with NCI-H23 lung, above 87.7 µM; in the assay on DU-145 prostate, 17 µM; in the assay with K-562 leukemia, 5.38 µM.

Consider `C1=CN2C[n+]3cccc(OCc4ccccc4)c3N=C2C(OCc2ccccc2)=C1`, for which the TGI is above 100 µM with NCI-H226 lung; 0.849 µM in the assay with HL-60(TB) leukemia; above 100 µM in the assay with SNB-75 CNS; 26.7 µM in the assay on SF-539 CNS; above 100 µM with OVCAR-8 ovarian; 47.1 µM in the assay with HT29 colon. Also, the TGI with U251 CNS was above 100 µM; with NCI-H23 lung, 39.9 µM; in the assay on DU-145 prostate, above 100 µM; in the assay with K-562 leukemia it was 42.4 µM.

With `COc1ccc(/C(=C/c2cc(OC)c(OC)c(OC)c2)[N+](=O)[O-])cc1`, the GI50 was 2.29 µM in the assay on NCI-H226 lung; 1.61 µM with HL-60(TB) leukemia; 2.02 µM with SNB-75 CNS; 1.61 µM in the assay with SF-539 CNS; 2.67 µM in the assay with OVCAR-8 ovarian; 3.68 µM in the assay with HT29 colon. The GI50 with U251 CNS is 1.58 µM; in the assay on NCI-H23 lung, 2.02 µM; in the assay on DU-145 prostate, 1.75 µM; in the assay on K-562 leukemia it was 1.71 µM. The TGI in the assay with NCI-H226 lung was 5.78 µM; in the assay with HL-60(TB) leukemia, 5.59 µM; with SNB-75 CNS, 6.3 µM; in the assay on SF-539 CNS, 2.98 µM; in the assay with OVCAR-8 ovarian it was 8.12 µM; with HT29 colon, 8.98 µM. Besides, the TGI in the assay on U251 CNS was 3.05 µM; with NCI-H23 lung, 4.64 µM; with DU-145 prostate it was 3.14 µM; with K-562 leukemia, above 100 µM.

Consider `O=C1c2cc3c(cc2-c2c1c1cc(Cl)c(Cl)cc1c(=O)n2CCCn1ccnc1)OCO3`, for which the GI50 in the assay with NCI-H226 lung, with HL-60(TB) leukemia, in the assay with SNB-75 CNS, in the assay with SF-539 CNS, in the assay with OVCAR-8 ovarian and in the assay with HT29 colon was below 0.01 µM each time. In addition, the GI50 in the assay on U251 CNS was below 0.01 µM; in the assay with NCI-H23 lung, below 0.01 µM; in the assay with DU-145 prostate, below 0.01 µM; in the assay with K-562 leukemia, 0.0111 µM. The TGI was 15.9 µM in the assay on HL-60(TB) leukemia; 17.1 µM with SNB-75 CNS; 0.0206 µM in the assay with SF-539 CNS; above 100 µM in the assay on OVCAR-8 ovarian; above 100 µM in the assay with HT29 colon; 11.6 µM in the assay with U251 CNS. Also, the figures for the TGI with NCI-H23 lung, in the assay on DU-145 prostate and in the assay with K-562 leukemia were 0.232 µM, 59.9 µM and 20.8 µM, respectively.

On to `COC(=O)c1cnc(=O)n(C2CC(O)C(CO)O2)c1` (centres undefined), for which the GI50 in the assay on NCI-H226 lung, in the assay with HL-60(TB) leukemia, in the assay with SNB-75 CNS, with SF-539 CNS, in the assay on OVCAR-8 ovarian and with HT29 colon was above 100 µM throughout. For the same compound, the GI50 with U251 CNS, in the assay on NCI-H23 lung, in the assay on DU-145 prostate and in the assay with K-562 leukemia was above 100 µM in each case. The TGI in the assay with NCI-H226 lung, in the assay with HL-60(TB) leukemia, with SNB-75 CNS, with SF-539 CNS, in the assay on OVCAR-8 ovarian and with HT29 colon was above 100 µM throughout. The TGI with U251 CNS, in the assay with NCI-H23 lung, in the assay with DU-145 prostate and in the assay with K-562 leukemia was above 100 µM each time.

(Values after PubChem BioAssay (NCI).)
